Source: ChEMBL document CHEMBL2073892, “Substitution of Trp1242 of TM17 alters substrate specificity of human multidrug resistance protein 3” (Am J Physiol Gastrointest Liver Physiol, 2003)

Target: Multidrug resistance associated protein (Homo sapiens) (UniProt Q96QA9)
Assay: TP_TRANSPORTER: uptake in membrane vesicles from HEK293T cells
Type: functional, cell membranes
Conditions: HEK293; Membrane vesicle

Multidrug resistance associated protein (Homo sapiens), sequence (Q96QA9 as listed by the source): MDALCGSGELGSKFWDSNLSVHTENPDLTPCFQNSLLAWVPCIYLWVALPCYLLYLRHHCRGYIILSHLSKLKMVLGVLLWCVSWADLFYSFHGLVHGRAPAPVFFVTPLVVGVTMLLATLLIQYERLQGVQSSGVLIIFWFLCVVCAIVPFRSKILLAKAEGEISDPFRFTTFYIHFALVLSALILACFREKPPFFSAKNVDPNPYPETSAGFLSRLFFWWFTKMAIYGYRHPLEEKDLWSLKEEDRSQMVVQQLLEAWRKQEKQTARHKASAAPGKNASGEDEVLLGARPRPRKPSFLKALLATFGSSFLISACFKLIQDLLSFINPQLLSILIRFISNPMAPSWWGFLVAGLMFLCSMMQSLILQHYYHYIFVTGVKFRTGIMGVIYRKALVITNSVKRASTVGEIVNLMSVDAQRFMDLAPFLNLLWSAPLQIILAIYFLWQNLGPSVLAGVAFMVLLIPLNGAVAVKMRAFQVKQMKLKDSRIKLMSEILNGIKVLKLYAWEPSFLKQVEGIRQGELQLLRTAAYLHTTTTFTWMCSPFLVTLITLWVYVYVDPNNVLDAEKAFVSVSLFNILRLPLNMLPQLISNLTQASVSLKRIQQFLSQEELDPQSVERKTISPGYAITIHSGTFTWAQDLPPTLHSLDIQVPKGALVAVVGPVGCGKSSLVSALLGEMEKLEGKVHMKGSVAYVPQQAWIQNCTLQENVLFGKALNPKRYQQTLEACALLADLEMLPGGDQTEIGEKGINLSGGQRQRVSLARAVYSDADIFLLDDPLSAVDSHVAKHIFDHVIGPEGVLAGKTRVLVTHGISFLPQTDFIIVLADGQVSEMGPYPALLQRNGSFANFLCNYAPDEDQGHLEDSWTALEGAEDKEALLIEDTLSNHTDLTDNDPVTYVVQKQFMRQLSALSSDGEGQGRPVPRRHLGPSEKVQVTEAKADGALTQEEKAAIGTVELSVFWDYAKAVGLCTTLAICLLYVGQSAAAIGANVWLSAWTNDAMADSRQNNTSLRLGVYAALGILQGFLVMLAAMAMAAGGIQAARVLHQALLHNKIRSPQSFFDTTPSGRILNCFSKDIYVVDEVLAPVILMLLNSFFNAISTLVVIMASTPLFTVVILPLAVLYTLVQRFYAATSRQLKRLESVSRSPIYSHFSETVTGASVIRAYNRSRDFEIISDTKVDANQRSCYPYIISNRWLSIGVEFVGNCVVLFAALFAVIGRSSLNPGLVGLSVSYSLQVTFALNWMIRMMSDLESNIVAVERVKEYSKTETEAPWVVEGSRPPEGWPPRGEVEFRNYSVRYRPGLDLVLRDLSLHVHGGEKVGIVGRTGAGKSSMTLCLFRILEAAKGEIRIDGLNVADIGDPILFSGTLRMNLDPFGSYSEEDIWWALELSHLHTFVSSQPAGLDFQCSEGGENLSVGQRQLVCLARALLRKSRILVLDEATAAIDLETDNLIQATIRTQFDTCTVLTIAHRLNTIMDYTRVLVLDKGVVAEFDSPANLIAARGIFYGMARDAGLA

| Structure (SMILES) | Activity |
| --- | --- |
| CCCCC/C=C\C\C=C/C=C/C=C/[C@@H](SC[C@@H](NC(=O)CC[C@H](N)C(=O)O)C(=O)NCC(=O)O)[C@@H](O)CCCC(=O)O | substrate [+] |
| CN(Cc1cnc2nc(N)nc(N)c2n1)c1ccc(C(=O)N[C@@H](CCC(=O)O)C(=O)O)cc1 | substrate [+] |
